One assay has as its target T1, C4760 DNA polymerase (a variant of DPO4, SEQ ID NO:2) (Saccharolobus solfataricus, UniProt Q97W02, A155G/A42V/D156R/D292Y/D294N/E291S/E324K/E325K/E327K/E63R/E79L/G187P/G299W/I153V/I189F/I248T/I295S/K152A/K317Q/K321Q/K56Y/K78D/L293W/M76W/N188Y/P184Q/Q82W/Q83G/R300S/S297Y/S86E/T290K/T301W/V289W/V296Q).
T1 construct: made in house
Nature of the assay: Primer extension assay with the HIV2 100mer template. Conditions: 0.5, 1, 1.52, or 2.5 Mm PEM; HIV2 100mer template; Eco SSB; 30 minutes at 23° C.; FIG. 11. It counts as biochemical, Sulfolobus solfataricus. How it is done: PEM activity of compound 12 was tested in primer extension assays using the HIV2 100mer template. Primer extension reactions included the following reagents: 50 Mm TrisCl, 200 Mm NH4Oac, 20% PEG8K, 5% NMS, 0.6 nmol PP-60.20, 0.6 Mm MnCl2, 2.75 μg/μl Eco single-strand binding protein (SSB), 1 M urea, 50 pmol each XNTP, 1.1 pmol template, 1 pmol oligonucleotide primer, 1.2 μg/μl purified recombinant C4760 DNA polymerase (SEQ ID NO:2), and 0.5, 1, or 1.5 Mm PEM. 10 μL primer extension reactions were run for 30 minutes at 23° C. and reaction products were analyzed by gel electrophoresis. […] Lanes 2-4 show primer extension products from reactions with a structurally related additive lacking robust PEM activity.
PEM activity of compounds 13 and 14 was tested in primer extension assays using the HIV2 100mer template. Primer extension reactions included the following reagents: 50 Mm TrisCl, 200 Mm NH4Oac, 20% PEG8K, 5% NMS, 0.6 nmol PP-60.20, 0.6 Mm MnCl2, 2.75 μg/μl Eco single-strand binding protein (SSB), 1 M urea, 50 pmol each XNTP, 1.1 pmol template, 1 pmol oligonucleotide primer, 1.2 μg/μl purified recombinant C4760 DNA polymerase (a variant of DPO4, see SEQ ID NO:2), and 0.5, 1, 1.52, or 2.5 Mm PEM. 10 μL primer extension reactions were run for 30 minutes at 23° C. and reaction products were analyzed by gel electrophoresis. A representative gel showing primer extension products is presented in FIG. 11 (the position of the full length HIV2 100mer is indicated by the arrow).
PEM activity of compounds 16, 17, and 18 and combinations thereof were tested in primer extension assays using the HIV2-derived 100mer template. Primer extension reactions included the following reagents: 50 Mm TrisCl, 200 Mm NH4Oac, 20% or 25% PEG8K, 5% NMS, 0.6 nmol PP-60.20, 0.6 Mm MnCl2, 2 μg Kod single-strand binding protein (SSB), 1 M urea, 50 pmol each XNTP, 1 pmol template, 1 pmol oligonucleotide primer, 1.2 μg purified recombinant C4760 DNA polymerase (a variant of DPO4, see SEQ ID NO:2), and 0.5-2 Mm PEM. 10 μL primer extension reactions were run for 30 minutes at 37° C. and reaction products were analyzed by gel electrophoresis. A representative gel showing primer extension products is presented in FIG. 13 (the position of a 100mer product is indicated by the arrow).
T1 sequence (Q97W02 other isoform, or with tags, fused parts or gaps with the stated changes): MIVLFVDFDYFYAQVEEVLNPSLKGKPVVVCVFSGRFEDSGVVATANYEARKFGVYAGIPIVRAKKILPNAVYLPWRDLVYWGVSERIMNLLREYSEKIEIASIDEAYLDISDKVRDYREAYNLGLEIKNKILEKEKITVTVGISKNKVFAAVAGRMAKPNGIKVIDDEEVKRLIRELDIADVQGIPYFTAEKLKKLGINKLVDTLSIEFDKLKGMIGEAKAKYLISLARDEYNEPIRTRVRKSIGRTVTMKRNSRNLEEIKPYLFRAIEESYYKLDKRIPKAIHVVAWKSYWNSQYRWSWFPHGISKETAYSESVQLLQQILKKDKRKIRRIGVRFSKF
For the compound `Cc1cc(-c2cn(-c3ccc(C(=O)O)c(O)c3)nn2)nc(-c2cn(-c3ccc(C(=O)O)c(O)c3)nn2)c1` [Compound 13, 4,4′-((4-methylpyridine-2,6-diyl)bis(1H-1,2,3-triazole-4,1-diyl))bis(2-hydroxybenzoic acid)], the “polymerization of XNTPs into full length Xpandomer copies (PEM activity)” value (shortened to “polymerization … (PEM activity)”) is listed as “enables polymerization of XNTPs into full length Xpandomer copies of the 100mer template in a manner comparable to that of compound 10”.
With `CCOC(=O)c1cc(-c2cn(-c3ccc(C(=O)O)c(O)c3)nn2)nc(-c2cn(-c3ccc(C(=O)O)c(O)c3)nn2)c1` [Compound 14, 4,4′-((4-(ethoxycarbonyl)pyridine-2,6-diyl)bis(1H-1,2,3-triazole-4,1-diyl))bis(2-hydroxybenzoic acid)], the “polymerization … (PEM activity)” value was “enables polymerization of XNTPs into full length Xpandomer copies of the 100mer template in a manner comparable to that of compound 10”.

Still in this assay, the particulars now being: 0.5, 1, or 1.5 Mm PEM; HIV2 100mer template; Eco SSB; 30 minutes at 23° C.; FIG. 10.
As for `N#Cc1cc(-c2cn(-c3ccc(O)c(C(=O)O)c3)nn2)nc(-c2cn(-c3ccc(O)c(C(=O)O)c3)nn2)c1` [Compound 12, 5,5′-((4-cyanopyridine-2,6-diyl)bis(1H-1,2,3-triazole-4,1-diyl))bis(2-hydroxybenzoic acid)], the “polymerization … (PEM activity)” value is reported as “enables polymerization of XNTPs into full length Xpandomer copies of the 100mer template”.

Still in this assay, the particulars now being: combination of 2 Mm compound 14 and 0.1 Mm or 0.3 Mm compound 17; HIV2-derived 100mer template; FIG. 13 lanes 7-9.
`CCOC(=O)c1cc(-c2cn(-c3ccc(C(=O)O)c(O)c3)nn2)nc(-c2cn(-c3ccc(C(=O)O)c(O)c3)nn2)c1` [Compound 14, 4,4′-((4-(ethoxycarbonyl)pyridine-2,6-diyl)bis(1H-1,2,3-triazole-4,1-diyl))bis(2-hydroxybenzoic acid)]: the “polymerization of XNTPs into lengthy Xpandomer copies, combination of PEMs” value is reported as “also enabled polymerization of XNTPs into lengthy Xpandomer copies of the 100mer template”.

The assay is the same for the next values; noted with them: combination of 2 Mm compound 16 and 0.1 Mm or 0.3 Mm compound 18; HIV2-derived 100mer template; FIG. 13 lanes 10-12.
On to `CNC(=O)c1cc(-c2cn(-c3ccc(C(=O)O)c(O)c3)nn2)nc(-c2cn(-c3ccc(C(=O)O)c(O)c3)nn2)c1` [Compound 18, 4,4′-((4-(methylcarbamoyl)pyridine-2,6-diyl)bis(1H-1,2,3-triazole-4,1-diyl))bis(2-hydroxybenzoic acid)], for which the “polymerization of XNTPs into full length copies, combination of PEMs” value is “enable polymerization of XNTPS into full length copies of the 100mer template”.

The next assay deals with T1, C4760 DNA polymerase (a variant of DPO4, SEQ ID NO:2). Nature of the assay: Primer extension on a 45mer RNA template derived from the HIV2 genome sequence. The format is biochemical, Sulfolobus solfataricus. Conditions: 2 Mm PEM; 45mer RNA template from HIV2 genome; 30 minutes at 37° C. Here is the method: To begin to investigate the potential of PEMs to enhance diverse polymerase reactions, the ability of PEMS to enable DNA polymerase to utilize RNA as a template was tested. An initial screen of several compounds set forth in Table I was conducted using a 45mer RNA template derived from the HIV2 genome sequence. Primer extension reactions included the following reagents: 50 Mm TrisCl, 200 Mm NH4Oac, 20% PEG8K, 5% NMS, 0.6 nmol PP-60.20, 0.6 Mm MnCl2, 2 μg Kod single-strand binding protein (SSB), 1 M urea, 50 pmol each XNTP, 0.5 pmol template, 0.5 pmol oligonucleotide primer, 1.2 μg purified recombinant C4760 DNA polymerase (a variant of DPO4, see SEQ ID NO:2), and 2 Mm PEM. 10 μL primer extension reactions were run for 30 minutes at 37° C. and reaction products were analyzed by gel electrophoresis.
In the case of `CCNC(=O)c1cc(-c2cn(-c3ccc(C(=O)O)c([N+](=O)[O-])c3)nn2)nc(-c2cn(-c3ccc(C(=O)O)c([N+](=O)[O-])c3)nn2)c1` [Compound 106, 4,4′-((4-(ethylcarbamoyl)pyridine-2,6-diyl)bis(1H-1,2,3-triazole-4,1-diyl))bis(2-nitrobenzoic acid)], the “PEM activity on an RNA template” value is “display PEM activity on an RNA template”.
Regarding `CCNC(=O)c1cc(-c2cn(-c3ccc(C(=O)NCC(=O)O)c(C(F)(F)F)c3)nn2)nc(-c2cn(-c3ccc(C(=O)NCC(=O)O)c(C(F)(F)F)c3)nn2)c1` [Compound 110, 2,2′-((4,4′-((4-(ethylcarbamoyl)pyridine-2,6-diyl)bis(1H-1,2,3-triazole-4,1-diyl))bis(2-(trifluoromethyl)benzoyl))bis(azanediyl))diacetic acid], the “PEM activity on an RNA template” value is “display PEM activity on an RNA template”.
As for `CCNC(=O)c1cc(-c2cn(-c3ccc(C(=O)O)c(C(F)(F)F)c3)nn2)nc(-c2cn(-c3ccc(C(=O)O)c(C(F)(F)F)c3)nn2)c1` [Compound 73, 4,4′-((4-(ethylcarbamoyl)pyridine-2,6-diyl)bis(1H-1,2,3-triazole-4,1-diyl))bis(2-(trifluoromethyl)benzoic acid)], the “PEM activity on an RNA template” value is reported as “display PEM activity on an RNA template”.
As for `CCNC(=O)c1cc(-n2cc(-c3ccc(C(=O)O)c(C(F)(F)F)c3)nn2)cc(-n2cc(-c3ccc(C(=O)O)c(C(F)(F)F)c3)nn2)c1` [Compound 116, 4,4′-((5-(ethylcarbamoyl)-1,3-phenylene)bis(1H-1,2,3-triazole-1,4-diyl))bis(2-(trifluoromethyl)benzoic acid)], the “PEM activity on an RNA template” value is reported as “display PEM activity on an RNA template”.
For the compound `O=C(O)c1ccc(-n2cc(-c3ccc(-c4cn(-c5ccc(C(=O)O)c(C(F)(F)F)c5)nn4)o3)nn2)cc1C(F)(F)F` [Compound 118, 4,4′-(furan-2,5-diylbis(1H-1,2,3-triazole-4,1-diyl))bis(2-(trifluoromethyl)benzoic acid)], the “PEM activity on an RNA template” value was “display PEM activity on an RNA template”.
With `CCNC(=O)c1cc(-c2cn(-c3ccc(C(=O)O)c(F)c3)nn2)nc(-c2cn(-c3ccc(C(=O)O)c(F)c3)nn2)c1` [Compound 76, 4,4′-((4-(ethylcarbamoyl)pyridine-2,6-diyl)bis(1H-1,2,3-triazole-4,1-diyl))bis(2-fluorobenzoic acid)], the “PEM activity on an RNA template” value is given as “display PEM activity on an RNA template”.
Regarding `O=C(NCCO)c1cc(-c2cn(-c3ccc(C(=O)O)c(C(F)(F)F)c3)nn2)nc(-c2cn(-c3ccc(C(=O)O)c(C(F)(F)F)c3)nn2)c1` [Compound 105, 4,4′-((4-((2-hydroxyethyl)carbamoyl)pyridine-2,6-diyl)bis(1H-1,2,3-triazole-4,1-diyl))bis(2-(trifluoromethyl)benzoic acid)], the “PEM activity on an RNA template” value is listed as “display PEM activity on an RNA template”.
`CCN(CC)C(=O)c1cc(-c2cn(-c3ccc(C(=O)O)c(O)c3)nn2)nc(-c2cn(-c3ccc(C(=O)O)c(O)c3)nn2)c1` [Compound 49, 4,4′-((4-(diethylcarbamoyl)pyridine-2,6-diyl)bis(1H-1,2,3-triazole-4,1-diyl))bis(2-hydroxybenzoic acid)]: the “PEM activity on an RNA template” value is listed as “display PEM activity on an RNA template”.
For the compound `CCNC(=O)c1cc(-c2cn(-c3ccc(C(F)(F)F)c(C(=O)O)c3)nn2)nc(-c2cn(-c3ccc(C(F)(F)F)c(C(=O)O)c3)nn2)c1` [Compound 75, 5,5′-((4-(ethylcarbamoyl)pyridine-2,6-diyl)bis(1H-1,2,3-triazole-4,1-diyl))bis(2-(trifluoromethyl)benzoic acid)], the “PEM activity on an RNA template” value is listed as “display PEM activity on an RNA template”.
In the case of `O=C(O)c1ccc(-n2cc(-c3cc(C(=O)N4CCOCC4)cc(-c4cn(-c5ccc(C(=O)O)c(O)c5)nn4)n3)nn2)cc1O` [Compound 51, 4,4′-((4-(morpholine-4-carbonyl)pyridine-2,6-diyl)bis(1H-1,2,3-triazole-4,1-diyl))bis(2-hydroxybenzoic acid)], the “PEM activity on an RNA template” value was “display PEM activity on an RNA template”.
For the compound `CCNC(=O)c1cc(-c2cn(-c3cc(C(=O)O)cc(C(F)(F)F)c3)nn2)nc(-c2cn(-c3cc(C(=O)O)cc(C(F)(F)F)c3)nn2)c1` [Compound 93, 5,5′-((4-(ethylcarbamoyl)pyridine-2,6-diyl)bis(1H-1,2,3-triazole-4,1-diyl))bis(3-(trifluoromethyl)benzoic acid)], the “PEM activity on an RNA template” value is on record as “display PEM activity on an RNA template”.

The values are drawn from patent US12698523B2, “Enhancement of nucleic acid polymerization by aromatic compounds” (priority 2019, dated 2026).
